# Measured values published in patent publication US20160083374A1, “AMORPHOUS FORM OF CANAGLIFLOZIN AND PROCESS FOR PREPARING THEREOF” (CADILA HEALTHCARE LIMITED, priority 2013, published 2016).
# Columns and labels:
# [1] = Solid-form stability under normal stability conditions; assay type: physicochemical; details: amorphous canagliflozin obtained by removal of solvent per the invention
# Excerpt: The obtained amorphous canagliflozin is stable under normal stability conditions and substantially free from residual solvent. Therefore, there is no physical change observed from amorphous form to crystalline form during the stability.
# In another general aspect, the stable amorphous form of canagliflozin, is stored under nitrogen atmosphere and packed in a double polythene bag tied with a thread, keeping primary packing containing amorphous canagliflozin or salts thereof inside a black color polyethylene bag containing oxygen busters and sealing it, placing above the double polyethylene bag inside a triple laminated bag optionally containing oxygen busters and sealing it, and placing the sealed triple laminated bag inside a closed high density polyethylene (HDPE) container and storing in controlled environment chamber at about 25° C. and/or 40° C.
# [2] = cited from earlier work
smiles,measurement,setting,value
Cc1ccc([C@@H]2O[C@H](CO)[C@@H](O)[C@H](O)[C@H]2O)cc1Cc1ccc(-c2ccc(F)cc2)s1 [amorphous canagliflozin],stability of amorphous form (change from amorphous to crystalline form),[1],stable
same,physical change between sorption/desorption cycles,"[2]; amorphous canagliflozin of US '487 A1, humidity increased from 70% to 90% RH",conversion or partial conversion from the amorphous state to a crystalline state
same,hygroscopicity by DVS,[2]; amorphous canagliflozin prepared by the process of US '487 A1 (toluene solution into n-heptane),hygroscopic
